These results are taken from ChEMBL document CHEMBL1146786, “Lingshuiol, a novel polyhydroxyl compound with strongly cytotoxic activity from the marine dinoflagellate Amphidinium sp” (Bioorg Med Chem Lett, 2004).

The subject of assay [1] is A549. Nature of the assay: In vitro cytotoxic activity of compound against A-549 cell line. Type of assay: functional, cell-based. The settings on record: Homo sapiens.
The subject of assay [2] is HL-60. Nature of the assay: In vitro cytotoxic activity of compound against HL-60 cell line. The settings on record: Homo sapiens. Type of assay: functional, cell-based.

Turning to `C=CCCCCCCCCCC/C=C/C(O)C(O)C1OC(C(O)C(O)C(=C)CCC(O)C2CC(O)C(O)C(C(O)C(O)/C=C(\C)CC(O)CC(O)C(O)C(O)C(O)C(O)C(C)CC(O)C(O)CC(C)/C=C/CCC(O)CC(=O)/C=C/CCCCC(O)CO)O2)CC(O)C1O` (configuration not stated) [LINGSHUIOL], the values for the IC50 in assay [1] and in assay [2] were 0.21 µM and 0.23 µM, respectively.
